We go through 1 compound from patent US20230097866A1, “BACTERIAL TOPOISOMERASE INHIBITORS DERIVED FROM ISOMANNIDE” (Ohio State Innovation Foundation, priority 2020, published 2023).

pIC50: −log10 of the molar value. ≈ marks a conversion by molar mass, not a printed value. Marks after values point to notes of the source that are not given here.

The subject of assay [1] is Enterobacter cloacae LSI-2943. The settings on record: previously published data for 27 and ciprofloxacin; cited from earlier work.
Assay [2] concerns Pseudomonas aeruginosa LSI-2946. As to conditions: previously published data for 27 and ciprofloxacin; cited from earlier work.
Another assay deals with USA300 isolate of MRSA. In words: MIC, CLSI broth microdilution, USA300 MRSA. Type of assay: cell-based. As to conditions: Staphylococcus aureus; CLSI broth microdilution; ciprofloxacin-resistant MRSA; read-out: MIC USA300. For orientation: Dilution methods test growth across graded concentrations, often in twofold steps.
In assay [3] the test system is Acinetobacter baumannii LSI-2957. As to conditions: previously published data for 27 and ciprofloxacin; cited from earlier work.
Assay [4] has as its system Enterococcus faecalis ATCC 29212. The settings on record: previously published data for 27 and ciprofloxacin; cited from earlier work.
The target of the next assay is TopoIV from S. aureus (Staphylococcus aureus, UniProt P0C1U9). In words: biochemical. Type of assay: biochemical.
TopoIV from S. aureus, sequence (P0C1S7 whole entry): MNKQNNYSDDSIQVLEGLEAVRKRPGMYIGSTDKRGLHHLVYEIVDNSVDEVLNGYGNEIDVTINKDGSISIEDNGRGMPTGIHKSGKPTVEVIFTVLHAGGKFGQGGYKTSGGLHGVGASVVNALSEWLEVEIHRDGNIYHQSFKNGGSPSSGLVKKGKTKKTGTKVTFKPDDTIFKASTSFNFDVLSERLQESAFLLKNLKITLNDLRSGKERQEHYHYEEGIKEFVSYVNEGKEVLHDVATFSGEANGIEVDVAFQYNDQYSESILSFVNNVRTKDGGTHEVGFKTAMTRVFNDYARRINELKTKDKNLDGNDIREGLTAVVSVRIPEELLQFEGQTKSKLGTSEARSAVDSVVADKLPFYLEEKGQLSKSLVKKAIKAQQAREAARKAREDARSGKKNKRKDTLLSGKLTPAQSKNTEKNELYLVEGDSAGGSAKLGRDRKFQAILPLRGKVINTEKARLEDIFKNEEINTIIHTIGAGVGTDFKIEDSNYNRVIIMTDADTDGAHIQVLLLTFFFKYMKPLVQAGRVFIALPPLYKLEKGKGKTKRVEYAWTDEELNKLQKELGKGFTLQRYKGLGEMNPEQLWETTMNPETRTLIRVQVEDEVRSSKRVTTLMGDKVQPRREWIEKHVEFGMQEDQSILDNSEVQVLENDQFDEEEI
TopoIV from S. aureus, sequence (P0C1U9 whole entry): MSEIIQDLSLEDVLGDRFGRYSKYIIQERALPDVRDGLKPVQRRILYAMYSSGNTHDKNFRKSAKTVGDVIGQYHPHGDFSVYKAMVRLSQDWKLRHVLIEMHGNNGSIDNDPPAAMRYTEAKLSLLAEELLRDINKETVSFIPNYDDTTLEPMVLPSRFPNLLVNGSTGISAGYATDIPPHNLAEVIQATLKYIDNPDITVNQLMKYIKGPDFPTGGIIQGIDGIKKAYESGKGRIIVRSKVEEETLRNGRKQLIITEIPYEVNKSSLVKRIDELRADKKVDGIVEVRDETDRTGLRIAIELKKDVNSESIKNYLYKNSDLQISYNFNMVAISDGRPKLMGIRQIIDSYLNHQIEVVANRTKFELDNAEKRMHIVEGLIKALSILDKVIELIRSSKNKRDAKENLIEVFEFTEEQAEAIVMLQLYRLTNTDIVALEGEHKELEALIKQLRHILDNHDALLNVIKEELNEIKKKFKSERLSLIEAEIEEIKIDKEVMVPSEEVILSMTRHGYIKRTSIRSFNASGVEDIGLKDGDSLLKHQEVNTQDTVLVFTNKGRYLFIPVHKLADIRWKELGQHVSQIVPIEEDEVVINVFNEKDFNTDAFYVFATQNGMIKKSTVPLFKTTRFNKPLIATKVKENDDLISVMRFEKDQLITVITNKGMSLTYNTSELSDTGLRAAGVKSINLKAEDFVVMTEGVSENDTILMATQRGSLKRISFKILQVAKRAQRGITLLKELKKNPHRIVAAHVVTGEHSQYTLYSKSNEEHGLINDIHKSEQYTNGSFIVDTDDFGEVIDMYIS
The test system of assay [5] is Streptococcus pneumoniae LSI-4246. As to conditions: penicillin-resistant strain; previously published data for 27 and ciprofloxacin; cited from earlier work.
The test system of assay [6] is Streptococcus pyogenes LSI-1235. As to conditions: previously published data for 27 and ciprofloxacin; cited from earlier work.
Assay [7] deals with S. aureus strain isolated from a cystic fibrosis patient. As to the kind of experiment: MIC, CLSI broth microdilution, CF isolate. In kind it is cell-based. As to conditions: Staphylococcus aureus; CLSI broth microdilution; read-out: MIC CF isolate.
Assay [8] relates to Escherichia coli ATCC 25922. The settings on record: previously published data for 27 and ciprofloxacin; cited from earlier work.
Assay [9] has as its system Enterococcus faecium DRL-4193. The settings on record: vancomycin-susceptible strain; previously published data for 27 and ciprofloxacin; cited from earlier work.
In assay [10] the test system is S. aureus ATCC 29213. As to the kind of experiment: MIC, CLSI broth microdilution, S. aureus ATCC 29213. In kind it is cell-based. As to conditions: Staphylococcus aureus, ATCC29213; CLSI broth microdilution, triplicate; read-out: MIC ATCC 29213.
The subject of assay [11] is Streptococcus pneumoniae LSI-4234. As to conditions: penicillin-susceptible strain; previously published data for 27 and ciprofloxacin; cited from earlier work.
The test system of assay [12] is Enterococcus faecium LSI-3340. As to conditions: vancomycin-resistant strain; previously published data for 27 and ciprofloxacin; cited from earlier work.
Assay [13] relates to Klebsiella pneumoniae LSI-2999. The settings on record: previously published data for 27 and ciprofloxacin; cited from earlier work.
The next assay deals with S. aureus DNA gyrase (Staphylococcus aureus, UniProt P20831). In words: Inhibition of DNA gyrase, biochemical assay (Inspiralis). As to conditions: S. aureus DNA gyrase; Inspiralis, Ltd.; read-out: Gyrase IC50.
S. aureus DNA gyrase, sequence (P0A0K8 whole entry): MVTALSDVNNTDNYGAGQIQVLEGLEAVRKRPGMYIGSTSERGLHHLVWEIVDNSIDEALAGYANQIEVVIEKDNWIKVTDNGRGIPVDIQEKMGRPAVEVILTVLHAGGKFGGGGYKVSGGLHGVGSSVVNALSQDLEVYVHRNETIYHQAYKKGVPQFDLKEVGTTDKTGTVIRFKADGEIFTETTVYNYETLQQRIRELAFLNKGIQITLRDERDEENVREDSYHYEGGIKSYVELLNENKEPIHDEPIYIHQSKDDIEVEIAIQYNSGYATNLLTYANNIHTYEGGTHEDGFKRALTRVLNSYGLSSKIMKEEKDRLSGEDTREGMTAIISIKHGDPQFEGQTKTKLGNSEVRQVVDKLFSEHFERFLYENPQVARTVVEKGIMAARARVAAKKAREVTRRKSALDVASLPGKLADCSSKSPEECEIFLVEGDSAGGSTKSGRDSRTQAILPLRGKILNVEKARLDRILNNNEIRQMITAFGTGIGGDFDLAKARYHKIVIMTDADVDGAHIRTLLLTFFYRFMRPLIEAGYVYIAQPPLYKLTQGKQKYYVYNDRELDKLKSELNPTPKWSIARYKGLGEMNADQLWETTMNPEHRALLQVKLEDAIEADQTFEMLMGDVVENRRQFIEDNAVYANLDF
S. aureus DNA gyrase, sequence (P20831 whole entry): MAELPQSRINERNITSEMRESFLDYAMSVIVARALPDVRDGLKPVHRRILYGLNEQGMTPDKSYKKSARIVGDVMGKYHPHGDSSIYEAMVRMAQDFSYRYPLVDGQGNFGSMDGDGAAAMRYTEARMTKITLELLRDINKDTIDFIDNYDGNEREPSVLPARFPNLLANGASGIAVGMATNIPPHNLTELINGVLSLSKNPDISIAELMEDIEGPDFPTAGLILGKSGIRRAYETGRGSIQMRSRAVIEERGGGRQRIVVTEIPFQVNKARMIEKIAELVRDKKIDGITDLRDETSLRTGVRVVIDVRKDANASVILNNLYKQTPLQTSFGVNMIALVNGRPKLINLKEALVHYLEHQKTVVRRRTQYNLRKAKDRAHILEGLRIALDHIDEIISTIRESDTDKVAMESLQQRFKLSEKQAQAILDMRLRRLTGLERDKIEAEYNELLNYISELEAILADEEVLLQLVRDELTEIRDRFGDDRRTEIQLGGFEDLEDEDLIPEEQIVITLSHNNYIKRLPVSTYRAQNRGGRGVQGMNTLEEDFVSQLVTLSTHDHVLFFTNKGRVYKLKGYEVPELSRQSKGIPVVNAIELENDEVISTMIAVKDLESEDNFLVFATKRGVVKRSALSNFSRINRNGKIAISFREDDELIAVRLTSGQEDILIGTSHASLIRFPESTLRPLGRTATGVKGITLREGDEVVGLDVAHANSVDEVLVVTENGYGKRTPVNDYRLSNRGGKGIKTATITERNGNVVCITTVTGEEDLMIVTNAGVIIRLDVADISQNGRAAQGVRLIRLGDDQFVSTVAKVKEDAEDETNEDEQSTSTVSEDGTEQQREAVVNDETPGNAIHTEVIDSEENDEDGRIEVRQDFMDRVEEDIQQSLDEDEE
Another assay deals with MRSADRL-3161. As to conditions: previously published data for 27 and ciprofloxacin; cited from earlier work.
For a further assay, the target named is hERG (Homo sapiens, UniProt Q12809). As to the kind of experiment: hERG IC50, IonWorks Barracuda (Charles River). An excerpt: The design of these isomannide-detived NBTIs focused on enhanced polarity and modulation of basicity through the two electronegative oxygen atoms in the linker.
hERG, sequence (Q12809 whole entry): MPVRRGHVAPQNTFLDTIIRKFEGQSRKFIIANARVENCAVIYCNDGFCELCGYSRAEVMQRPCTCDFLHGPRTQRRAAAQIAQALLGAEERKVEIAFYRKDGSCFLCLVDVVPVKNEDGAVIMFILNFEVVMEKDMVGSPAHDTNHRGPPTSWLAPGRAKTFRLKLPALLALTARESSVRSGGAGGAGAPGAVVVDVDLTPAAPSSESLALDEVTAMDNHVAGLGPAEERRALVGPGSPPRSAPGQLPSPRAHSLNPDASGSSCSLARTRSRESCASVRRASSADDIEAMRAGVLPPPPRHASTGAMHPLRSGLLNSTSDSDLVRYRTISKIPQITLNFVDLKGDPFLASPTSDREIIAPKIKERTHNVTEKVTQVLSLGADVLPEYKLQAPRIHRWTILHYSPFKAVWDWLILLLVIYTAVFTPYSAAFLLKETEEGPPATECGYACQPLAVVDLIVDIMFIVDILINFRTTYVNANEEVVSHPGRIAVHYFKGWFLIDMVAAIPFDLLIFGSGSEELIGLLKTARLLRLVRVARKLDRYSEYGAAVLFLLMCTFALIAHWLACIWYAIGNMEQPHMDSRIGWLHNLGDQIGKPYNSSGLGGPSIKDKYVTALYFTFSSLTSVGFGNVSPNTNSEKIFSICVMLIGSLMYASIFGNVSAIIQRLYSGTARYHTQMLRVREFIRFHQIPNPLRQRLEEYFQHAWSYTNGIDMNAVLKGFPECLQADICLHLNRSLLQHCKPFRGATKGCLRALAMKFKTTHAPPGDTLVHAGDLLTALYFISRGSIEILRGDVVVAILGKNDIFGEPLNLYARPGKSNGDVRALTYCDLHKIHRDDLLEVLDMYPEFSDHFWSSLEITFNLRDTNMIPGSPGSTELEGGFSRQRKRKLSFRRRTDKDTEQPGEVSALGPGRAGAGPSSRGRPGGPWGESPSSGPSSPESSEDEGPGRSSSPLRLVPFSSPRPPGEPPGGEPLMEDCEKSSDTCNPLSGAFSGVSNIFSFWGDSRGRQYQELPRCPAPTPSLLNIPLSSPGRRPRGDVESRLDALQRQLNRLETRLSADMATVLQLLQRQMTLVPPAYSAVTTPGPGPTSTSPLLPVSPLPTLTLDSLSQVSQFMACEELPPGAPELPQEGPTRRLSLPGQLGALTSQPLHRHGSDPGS
(The hERG channel carries a current that helps repolarise heart muscle cells.)

In assay [14] the test system is S. aureus ATCC 29213. As to conditions: previously published data for 27 and ciprofloxacin; cited from earlier work.

What is called MIC is the lowest concentration found to suppress growth. A word on the pIC50: it is −log10 of the IC50, conventionally taken in molar units. For the compound `COc1ccc2ncc(F)c(CCC3OCC(NCc4ccc5c(c4)OCCO5)CO3)c2n1` (centres unmarked) [Compound 27], in assay [1], the “MIC Enterobacter cloacae LSI-2943” value is 32 µg/mL (≈ 70.3 µM). In addition, the “MIC Pseudomonas aeruginosa LSI-2946” value in assay [2] is 4 µg/mL (≈ 8.78 µM). Also, the minimum inhibitory concentration (MIC) is 0.125 to 0.25 µg/mL (≈ 0.274 to 0.549 µM) with USA300 isolate of MRSA, 0.25 µg/mL (≈ 0.549 µM) in assay [7] and at most 0.25 µg/mL in the assay with S. aureus ATCC 29213 [10]. Moreover, the “MIC Acinetobacter baumannii LSI-2957” value in assay [3] was 2 µg/mL (≈ 4.39 µM). Also, in [4], the “MIC Enterococcus faecalis ATCC 29212” value is 0.5 µg/mL (≈ 1.1 µM). The pIC50 at TopoIV from S. aureus (S. aureus TopoIV, read-out: TopoIV IC50) was 6.00; on S. aureus DNA gyrase, 7.52; against hERG, 5.10. Moreover, at TopoIV from S. aureus (S. aureus enzymes), the “TopoIV/gyrase IC50 ratio” value turned out to be 33. Moreover, the “MIC Streptococcus pneumoniae LSI-4246” value in [5] is at most 0.06 µg/mL. For the same compound, in assay [6], the “MIC Streptococcus pyogenes LSI-1235” value was at most 0.06 µg/mL. The “MIC Escherichia coli ATCC 25922 (n = 2)” value in assay [8] was 16 µg/mL (≈ 35.1 µM). Further, the “MIC Enterococcus faecium DRL-4193” value in [9] was 0.12^f μg/mL. Also, in assay [11], the “MIC Streptococcus pneumoniae LSI-4234” value was 0.25 µg/mL (≈ 0.549 µM). Further, the “MIC Enterococcus faecium LSI-3340” value in assay [12] was 0.12 µg/mL (≈ 0.263 µM). Moreover, the “MIC Klebsiella pneumoniae LSI-2999” value in assay [13] is over 64 µg/mL. Moreover, in the assay on MRSADRL-3161, the “MIC MRSADRL-3161” value was at most 0.06 µg/mL. Also, the “MIC S. aureus ATCC 29213 (n = 3)” value in the assay with S. aureus ATCC 29213 [14] is ≤0.06^b μg/mL.
